# Results from patent US12577273B2, “Small molecule modulators of gut bacterial bile acid metabolism” (priority 2019, dated 2026).
# Where “and” joins values, the source holds several entries; their conditions need not be identical. Equal entries are not always repeated. Entries after “also recorded” stand apart in the source; their conditions may differ.
# How the values were obtained:
# [1] = biological target: T1, B. theta BSH (Bacteroides thetaiotaomicron, UniProt Q8A600); assay: Enzyme kinetics (ninhydrin assay), B. theta BSH; type: biochemical; settings: for deconjugation of substrate by purified B. theta BSH (in words): ninhydrin-based assay
# Procedure: (§1) Enzyme Kinetics. […] This solution was preheated to 37° C. in a water bath. 20 μL of a conjugated bile acid in DMSO at appropriate concentration was preheated to 37° C. in a water bath and added to the above solution. […] The cloudy solution was centrifuged at 4,200 g for 15 mins. 10 μL of the supernatant was added to 190 μL of ninhydrin mix (15 mL of 1% [wt/vol] ninhydrin in 0.5 M sodium citrate at pH 5.5, 36 mL glycerol and 6 mL 0.5 M sodium citrate buffer at pH 5.5) and the mixture was heated to 100° C. in a BioRad thermocycler for 18 mins. The obtained solution was cooled at 4° C. for 20 mins and absorbance was measured at 570 nm using a spectrophotometer (Molecular Devices).
# [2] = biological target: T2, B. longum BSH (Bifidobacterium longum, UniProt Q9KK62); assay: Enzyme kinetics (ninhydrin assay), B. longum BSH; settings: substrate of B. longum BSH
# T2 sequence (Q9KK62 1-317): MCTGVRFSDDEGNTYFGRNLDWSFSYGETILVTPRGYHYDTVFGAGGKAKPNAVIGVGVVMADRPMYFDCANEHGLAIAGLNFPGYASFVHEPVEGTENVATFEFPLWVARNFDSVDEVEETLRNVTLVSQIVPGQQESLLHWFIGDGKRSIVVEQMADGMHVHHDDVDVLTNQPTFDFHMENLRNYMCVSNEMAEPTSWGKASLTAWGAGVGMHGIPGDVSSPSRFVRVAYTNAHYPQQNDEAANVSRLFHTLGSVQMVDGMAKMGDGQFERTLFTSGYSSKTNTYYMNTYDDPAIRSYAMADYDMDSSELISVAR
# Procedure: as §1
# [3] = tested on: B. theta cultures; assay: BSH inhibition in growing B. theta cultures, single substrate (GUDCA or TUDCA); type: cell-based, Bacteroides thetaiotaomicron; settings: 10 μM inhibitor; for BSH inhibition in B. theta cultures compared to 7 (in words): 100 μM TUDCA; for deconjugation of GUDCA in growing B. theta cultures (in words): 100 μM GUDCA
# [4] = biological target: T1, B. theta BSH; assay: Inhibitor screen using rBSH, B. theta BSH (UPLC-MS % deconjugation); settings: 100 μM inhibitor; for inhibition of B. theta BSH (in words): 30 min preincubation, monitored over 21 hours; for % deconjugation of TDCA / % deconjugation of TUDCA / % deconjugation of TβMCA / % deconjugation of TCA: 200 nM rBSH, replicates 1-3
# [5] = tested on: BSH activity in conventional mouse feces; assay: Screen of inhibitors in conventional mouse feces; type: biochemical; settings: 20 μM inhibitor, 30 min, then GCDCA-d4 100 μM, 18 hours
# Procedure: Screen of Inhibitors in Conventional Mouse Feces. […] The tubes were then frozen in dry ice for 5 mins and upon thawing were diluted with an equal volume of methanol. […] The supernatant was removed into a clean eppendorf tube and centrifuged again. […] The concentration of product detected from these assays was reported directly.
# [6] = biological target: T2, B. longum BSH; assay: Inhibitor screen using rBSH, B. longum BSH (UPLC-MS % deconjugation); type: biochemical, Bifidobacterium longum SBT2928; parameters: His6 (C); made in house; host or cells: Escherichia coli (as for the B. theta enzyme); settings: 100 μM inhibitor; for % deconjugation of TCA / % deconjugation of TDCA / % deconjugation of TUDCA / % deconjugation of TβMCA: 200 nM rBSH, bile acid pool, replicates 1-3
# Procedure: B. longum rBSH. Recombinant BSH from B. longum SBT2928 was expressed and purified as above, except 0.25 mM IPTG was used for protein expression and 1 mM TCEP for protein purification.
# Inhibitor Screen Using rBSHs.
# [7] = tested on: three Gram negative and three Gram positive strains of human gut bacteria; assay: BSH inhibition in growing cultures of six gut bacterial strains (overall statements); type: cell-based; settings: 100 μM inhibitor, 100 μM conjugated bile acid mixture
# [8] = Table 1, substrate of B. Theta BSH, PBS pH 7.5, 37° C.
# [9] = Table 3, substrate of B. theta BSH, mean ± SEM, n = 3
# [10] = FIG. 2a, 2 hours, bile acid pool
# [11] = FIG. 2a, 2 hours, pool of four tauro conjugated bile acids 25 μM each
# [12] = FIG. 2a, 21 hours, bile acid pool
# [13] = Supplementary FIG. 3a, 5 hours, bile acid pool
smiles,measurement,setting,value
"C[C@H](CCC(=O)NCCS(=O)(=O)O)[C@H]1CC[C@H]2[C@@H]3CC[C@@H]4C[C@H](O)CC[C@]4(C)[C@H]3C[C@H](O)[C@]12C [TDCA, taurodeoxycholic acid]",Kcat,[1]; [8],1.682 s⁻¹
same,Km,[1]; [8],3.35 mM
same,Kcat,[1]; [9],0.215 ± 0.01 s⁻¹
same,Km,[1]; [9],3.4 ± 0.6 mM
same,deconjugation of substrate by purified B. theta BSH (in words),[1],preference for TDCA deconjugation
same,Kcat,"[2]; Table 1, PBS pH 7.5, 37° C.",1.695 s⁻¹
same,Kcat,"[2]; Table 3, mean ± SEM, n = 3",0.0583 ± 0.0017 s⁻¹
"C[C@H](CCC(=O)NCCS(=O)(=O)O)[C@H]1CC[C@H]2[C@@H]3[C@H](O)C[C@@H]4C[C@H](O)CC[C@]4(C)[C@H]3C[C@H](O)[C@]12C [TCA, taurocholic acid]",deconjugation of substrate by purified B. theta BSH (in words),[1],did not deconjugate
same,Kcat,"[2]; Table 1, PBS pH 7.5, 37° C.",1.82 s⁻¹
CC(=O)CC[C@@H](C)[C@H]1CC[C@H]2[C@@H]3[C@H](O)C[C@@H]4C[C@H](O)CC[C@]4(C)[C@H]3CC[C@]12C [Compound 8],BSH inhibition in B. theta cultures compared to 7 (in words),[3],less potent inhibitors of B. theta BSH than compound 7; also recorded: did not display BSH inhibition against either recombinant protein or B. theta cultures
same,inhibition of B. theta BSH (in words),[4],did not display BSH inhibition; also recorded: did not display BSH inhibition against either recombinant protein or B. theta cultures
C[C@H](CCN=C=S)[C@H]1CC[C@H]2[C@@H]3[C@H](O)C[C@@H]4C[C@H](O)CC[C@]4(C)[C@H]3CC[C@]12C [Compound 1],BSH activity in resuspended conventional mouse feces (in words),[5],moderate BSH inhibition; also recorded: decreased deconjugation
same,inhibition of B. theta BSH (in words),[4],modest inhibition
same,% deconjugation of TDCA,[4]; [10],51.40% and 46.10% and 43.43%
same,% deconjugation of TUDCA,[4]; [10],37.96% and 35.92% and 33.34%
same,% deconjugation of TβMCA,[4]; [10],3.72% and 3.29% and 3.28%
same,% deconjugation of TCA,[4]; [11],0.12% and 0.17% and 0.29%
same,% deconjugation of TCA,[4]; [12],0.12% and 0.17% and 0.15%
same,% deconjugation of TDCA,[4]; [12],45.18% and 51.87% and 45.19%
same,% deconjugation of TUDCA,[4]; [12],34.40% and 41.24% and 37.45%
same,% deconjugation of TβMCA,[4]; [12],3.18% and 4.28% and 3.11%
same,% deconjugation of TCA,[4]; [13],0.25% and 0.00% and 0.21%
same,% deconjugation of TDCA,[4]; [13],52.56% and 51.54% and 45.63%
same,% deconjugation of TUDCA,[4]; [13],38.73% and 40.02% and 35.99%
same,% deconjugation of TβMCA,[4]; [13],4.42% and 4.47% and 3.37%
same,inhibition of B. longum BSH (in words),"[6]; 2 h, 5 h and 21 h timepoints",modest inhibition
same,% deconjugation of TCA,"[6]; FIG. 2b, 2 hours",0.10% and 0.89% and 0.43%
same,% deconjugation of TDCA,"[6]; FIG. 2b, 2 hours",7.25% and 4.34% and 2.20%
same,% deconjugation of TUDCA,"[6]; FIG. 2b, 2 hours",2.12% and 1.09% and 0.61%
same,% deconjugation of TβMCA,"[6]; FIG. 2b, 2 hours",2.49% and 0.05% and 0.03%
same,% deconjugation of TCA,"[6]; FIG. 2b, 21 hours",9.02% and 3.00% and 8.03%
same,% deconjugation of TDCA,"[6]; FIG. 2b, 21 hours",23.33% and 14.91% and 20.42%
same,% deconjugation of TUDCA,"[6]; FIG. 2b, 21 hours",4.57% and 2.48% and 3.66%
same,% deconjugation of TβMCA,"[6]; FIG. 2b, 21 hours",0.21% and 0.13% and 0.28%
same,% deconjugation of TCA,"[6]; Supplementary FIG. 3b, 5 hours",4.13% and 4.57% and 4.31%
same,% deconjugation of TDCA,"[6]; Supplementary FIG. 3b, 5 hours",9.85% and 11.26% and 11.96%
same,% deconjugation of TUDCA,"[6]; Supplementary FIG. 3b, 5 hours",2.44% and 2.49% and 2.64%
same,% deconjugation of TβMCA,"[6]; Supplementary FIG. 3b, 5 hours",0.10% and 0.11% (2×)
"C[C@H](CCC(=O)NCCS(=O)(=O)O)[C@H]1CC[C@H]2[C@@H]3[C@H](O)C[C@@H]4C[C@H](O)CC[C@]4(C)[C@H]3CC[C@]12C [TCDCA, taurochenodeoxycholic acid]",Kcat,[1]; [8],1.69 s⁻¹
same,Km,[1]; [8],2.86 mM
same,Kcat,[1]; [9],0.0717 ± 0.01 s⁻¹
same,Km,[1]; [9],2.9 ± 1.8 mM
same,Kcat,"[2]; Table 1, PBS pH 7.5, 37° C.",1.807 s⁻¹
same,Km,"[2]; Table 1, PBS pH 7.5, 37° C.",7.75 mM
same,Kcat,"[2]; Table 3, mean ± SEM, n = 3",0.0767 ± 0.01 s⁻¹
same,Km,"[2]; Table 3, mean ± SEM, n = 3",7 ± 2.3 mM
C[C@H](CCC(=O)CF)[C@H]1CC[C@H]2[C@@H]3[C@H](O)C[C@@H]4C[C@H](O)CC[C@]4(C)[C@H]3C[C@H](O)[C@]12C [Compound 9],deconjugation of GUDCA in growing B. theta cultures (in words),[3],significantly diminished activity to inhibit B. theta BSH
same,deconjugation of GUDCA in growing B. theta cultures (in words),[3]; listed as compound 9,significant deconjugation was observed
same,BSH inhibition in B. theta cultures compared to 7 (in words),[3],less potent inhibitors of B. theta BSH than compound 7; also recorded: significantly reduced ability to inhibit BSH deconjugation
C#CC(=O)CC[C@@H](C)[C@H]1CC[C@H]2[C@@H]3[C@H](O)C[C@@H]4C[C@H](O)CC[C@]4(C)[C@H]3CC[C@]12C [Compound 4],% deconjugation of TDCA,[4]; [10],97.26% and 96.13% and 94.56%
same,% deconjugation of TUDCA,[4]; [10],94.07% and 91.62% and 89.81%
same,% deconjugation of TβMCA,[4]; [10],32.07% and 29.34% and 22.69%
same,% deconjugation of TCA,[4]; [11],0.47% and 1.15% and 0.30%
same,% deconjugation of TCA,[4]; [12],1.50% and 0.85% and 1.80%
same,% deconjugation of TDCA,[4]; [12],95.87% and 95.61% and 96.21%
same,% deconjugation of TUDCA,[4]; [12],98.54% and 97.31% and 97.80%
same,% deconjugation of TβMCA,[4]; [12],47.65% and 32.41% and 43.47%
same,% deconjugation of TCA,[4]; [13],0.40% and 1.92% and 1.29%
same,% deconjugation of TDCA,[4]; [13],99.59% and 99.50% and 99.01%
same,% deconjugation of TUDCA,[4]; [13],98.43% and 98.54% and 97.17%
same,% deconjugation of TβMCA,[4]; [13],26.17% and 45.65% and 37.57%
"Cc1cc2nc3c(=O)[nH]c(=O)nc-3n(C[C@H](O)[C@H](O)[C@H](O)CO)c2cc1C [Riboflavin, riboflavin, reference compound]",deconjugation / BSH inhibition in cultures of the six bacterial strains (in words),[7],neither riboflavin nor CAPE displayed significant inhibitory activity against any of the Gram negative strains
same,inhibition of B. theta BSH (in words),[4],did not display any inhibitory activity
"C[C@H](CCC(=O)NCCS(=O)(=O)O)[C@H]1CC[C@H]2[C@@H]3[C@@H](O)C[C@@H]4C[C@H](O)CC[C@]4(C)[C@H]3CC[C@]12C [TUDCA, tauroursodeoxycholic acid]",Kcat,[1]; [8],1.807 s⁻¹
same,Km,[1]; [8],8.23 mM
same,Kcat,[1]; [9],0.255 ± 0.013 s⁻¹
same,Km,[1]; [9],8.2 ± 1 mM
same,deconjugation of substrate by purified B. theta BSH (in words),[1],displayed a preference
same,Kcat,"[2]; Table 1, PBS pH 7.5, 37° C.",1.608 s⁻¹
same,Kcat,"[2]; Table 3, mean ± SEM, n = 3",0.015 ± 0.0033 s⁻¹
